Assays:
AMPK-KSR1 interaction = test: Coimmunoprecipitation of AMPK with KSR1; format: cell-based; settings: AMPK expressed in cells with KSR1; FIG. 22
Excerpt: (§1) FIG. 22. is a series of western blots showing that AMPK coimmunopreciptates with KSR1 and KSR2.
(§2) AMP activated protein kinase (AMPK) is a critical regulator of catabolism in cells, promoting the synthesis of ATP and inhibiting the anabolic effects of other hormones to promote […]. AMPK is an indirect target of the widely prescribed anti-diabetic drug metformin. […] When AMPK is expressed in cells with either KSR or KSR2, AMPK is found to precipitate with either protein. AMPK is not precipitated in the absence of KSR proteins.

AMPK-KSR2 interaction = test: Coimmunoprecipitation of AMPK with KSR2; format: cell-based; settings: AMPK expressed in cells with KSR2; FIG. 22
Excerpt: as §1, §2

CC[C@H]1/C=C/C=C/C[C@@H](C)[C@H](O)[C@@](C)(O)C(=O)[C@@H](C)[C@H](O)[C@@H](C)C(=O)[C@@H](C)[C@H](O)[C@@H](C)/C=C/C(=O)O[C@@H]2[C@H](C)[C@H](CC1)O[C@]1(CC[C@H](C)[C@H](C[C@@H](C)O)O1)[C@H]2C [oligomycin]
Effect on interaction of AMPK with KSR1 (AMPK-KSR1 interaction): does not alter
Effect on interaction of AMPK with KSR2 (AMPK-KSR2 interaction): does not alter

From patent publication US7723564B2, “Compositions and methods for modulation of KSR1 and KSR2 interactions” (Board of Regents of the University of Nebraska, priority 2006, dated 2010)
